# Data as given in ChEMBL document CHEMBL1149926, “Synthesis of 7-substituted androstenediones by a 1,4-conjugate addition approach” (Bioorg Med Chem Lett, 1995).
# Molecular target: T1, Aromatase (Homo sapiens, UniProt P11511)
# T1 sequence (P11511 whole entry): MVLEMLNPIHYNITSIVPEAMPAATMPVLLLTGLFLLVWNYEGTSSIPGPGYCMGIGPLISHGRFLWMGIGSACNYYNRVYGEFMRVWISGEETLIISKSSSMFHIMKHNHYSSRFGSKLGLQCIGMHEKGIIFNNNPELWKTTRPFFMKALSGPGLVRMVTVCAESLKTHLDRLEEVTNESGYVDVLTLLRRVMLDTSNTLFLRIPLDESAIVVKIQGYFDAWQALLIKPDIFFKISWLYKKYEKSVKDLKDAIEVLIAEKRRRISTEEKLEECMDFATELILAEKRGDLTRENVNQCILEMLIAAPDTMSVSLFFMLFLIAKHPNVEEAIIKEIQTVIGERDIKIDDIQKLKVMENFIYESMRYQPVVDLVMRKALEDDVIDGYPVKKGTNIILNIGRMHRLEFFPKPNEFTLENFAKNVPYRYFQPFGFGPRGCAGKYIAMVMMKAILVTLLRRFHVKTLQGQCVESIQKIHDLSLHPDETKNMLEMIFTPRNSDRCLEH
# Assay: Inhibition of aromatase cytochrome P450 19A1
row,SMILES,Ki [nM]
1,C[C@]12CCC(=O)C=C1C[C@@H](Cc1ccccc1)[C@@H]1[C@@H]2CC[C@]2(C)C(=O)CC[C@@H]12,13.1
2,C[C@]12CCC(=O)C=C1C[C@@H](CCc1ccccc1)[C@@H]1[C@@H]2CC[C@]2(C)C(=O)CC[C@@H]12,16.5
3,C[C@]12C=CC(=O)C=C1C[C@@H](Sc1ccc(N)cc1)[C@@H]1[C@@H]2CC[C@]2(C)C(=O)CC[C@@H]12,10
